Like-named read-outs stand apart in the source and are kept apart here.

Series [1] is described as follows: oral absorption of gallium in rats (4-hour plasma gallium AUC). The conditions noted are these: rat, 0.067 mmol/kg, 0-4 hours, absorption from the intestine. In kind it is in vivo, Male Sprague Dawley rats. On the procedure:
According to the invention, compounds were tested for oral absorption in rats. Male Sprague Dawley rats weighing 150-225 g were purchased from Harlan Sprague Dawley, Inc. (Indianapolis, Ind.). The gallium standard solution is from Aldrich Chemical Co (Milwaukee, Wis.). Metofane is a product from Pitman-Moore (Mundelein, Ill.), and all other chemicals are commercially available. Gallium test compounds were dissolved in 18 megaohm water (Millipore, Bedford, Mass.) or suspended in 0.5% carboxymethyl cellulose in 5% ethanol, if the compound was not water soluble. The suspensions were sonicated at room temperature for about 5 minutes. […]
Sutures were made with 3-4 stitches with 3-0 silk surgical thread (Ethicon Inc, Somerville, N.J.). […] The blood was placed in 1 ml Eppendorf tubes precoated with 50 μl heparin (1,000 U/ml and air dried, so there was no blood dilution involved. The plasma was recovered after the blood was centrifuged for 2 minutes in a Fischer Micro-centrifuge, Model 235B, and its gallium content measured by a Varian Flameless Atomic Absorption Spectrometer. The standard curve was linear in the gallium concentrations of 5-100 ng/ml. The data under the […] versus time curve (AUC) for 0-4 hours was estimated. […]

The test system of series [2] is renal toxicity. The note with it: cited from earlier work.
The test system of series [3] is bone. The note with it: cited from earlier work.
In series [4] the test system is cancer-associated hypercalcemia. The conditions noted are these: cited from earlier work.
Series [5] relates to gastro-intestinal tract. The note with it: pH 4.5-7; cited from earlier work.
For series [6] the following is noted: pH 4.5-7; cited from earlier work.

For the molecule `O=[N+]([O-])[O-].O=[N+]([O-])[O-].O=[N+]([O-])[O-].[Ga+3]` [Ga(NO3)3, gallium nitrate], the “4-hour plasma gallium AUC” value in series [1] was 897 (ng//ml)h.

For the molecule `[Ga]` [gallium], the renal toxicity result is “renal toxicity is dose-limiting” in series [2] (i.v. bolus) and “showed no renal toxicity” in series [2] (seven day continuous i.v. infusion, cancer-associated hypercalcemia). Moreover, in series [3], the bone strength entry is recorded as “increases bone strength”. In series [3], the “resorption of calcium from bone” value is given as “inhibiting the resorption of calcium from bone”. The serum calcium entry in series [4] (patients with hypercalcemia of malignancy) is reported as “reduce serum calcium”. In addition, the “efficacy in cancer-associated hypercalcemia” value in series [4] (seven day continuous i.v. infusion) is listed as “effective”.

Take `[Ga+3]` [gallium(III) aquo-ion]: in series [5], the absorption entry is “very poorly absorbed”. Also, the hydrolysis result in series [6] is recorded as “extensively hydrolysed to insoluble hydroxides”.

Source of the values: US5196412A, “Gallium compounds” (Johnson Matthey, Inc., priority 1991, dated 1993).
